Laboratory results as given in US12371428B2 (Exelixis, Inc., priority 2019, dated 2025).
Structures can show the parent of a compound that is named as a salt.

Key:
[1] = target: Human KDR (residues 790-1356) (Homo sapiens (Human), UniProt P35968); assay: Human KDR kinase assay, HTRF KinEase (Example B-2); type: biochemical; conditions: protocol of Example B-2 (other compounds)
How it was run: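 Ten compound concentrations (3% DMSO final) were pre-plated, then KDR (790-1356) with biotinylated peptide in Mg/Mn/DTT buffer was added; ATP at Km (4.0 μM) started a 40 min room-temperature reaction. Detection used Eu-TK antibody and SA-XL665 in EDTA buffer; activity normalized to DMSO and reference inhibitor, IC50 by logistic fit.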

[2] = target: Met (phospho-Met, HGF-stimulated PC-3 prostate cancer cells) (Homo sapiens (Human), UniProt P08581); assay: Met autophosphorylation ELISA in PC-3 cells (Example F); type: cell-based; conditions: cellular activity; Met autophosphorylation ELISA in PC-3 cells; read-out: c-Met IC50
Chain of Met (phospho-Met, HGF-stimulated PC-3 prostate cancer cells) (P08581 25-1390): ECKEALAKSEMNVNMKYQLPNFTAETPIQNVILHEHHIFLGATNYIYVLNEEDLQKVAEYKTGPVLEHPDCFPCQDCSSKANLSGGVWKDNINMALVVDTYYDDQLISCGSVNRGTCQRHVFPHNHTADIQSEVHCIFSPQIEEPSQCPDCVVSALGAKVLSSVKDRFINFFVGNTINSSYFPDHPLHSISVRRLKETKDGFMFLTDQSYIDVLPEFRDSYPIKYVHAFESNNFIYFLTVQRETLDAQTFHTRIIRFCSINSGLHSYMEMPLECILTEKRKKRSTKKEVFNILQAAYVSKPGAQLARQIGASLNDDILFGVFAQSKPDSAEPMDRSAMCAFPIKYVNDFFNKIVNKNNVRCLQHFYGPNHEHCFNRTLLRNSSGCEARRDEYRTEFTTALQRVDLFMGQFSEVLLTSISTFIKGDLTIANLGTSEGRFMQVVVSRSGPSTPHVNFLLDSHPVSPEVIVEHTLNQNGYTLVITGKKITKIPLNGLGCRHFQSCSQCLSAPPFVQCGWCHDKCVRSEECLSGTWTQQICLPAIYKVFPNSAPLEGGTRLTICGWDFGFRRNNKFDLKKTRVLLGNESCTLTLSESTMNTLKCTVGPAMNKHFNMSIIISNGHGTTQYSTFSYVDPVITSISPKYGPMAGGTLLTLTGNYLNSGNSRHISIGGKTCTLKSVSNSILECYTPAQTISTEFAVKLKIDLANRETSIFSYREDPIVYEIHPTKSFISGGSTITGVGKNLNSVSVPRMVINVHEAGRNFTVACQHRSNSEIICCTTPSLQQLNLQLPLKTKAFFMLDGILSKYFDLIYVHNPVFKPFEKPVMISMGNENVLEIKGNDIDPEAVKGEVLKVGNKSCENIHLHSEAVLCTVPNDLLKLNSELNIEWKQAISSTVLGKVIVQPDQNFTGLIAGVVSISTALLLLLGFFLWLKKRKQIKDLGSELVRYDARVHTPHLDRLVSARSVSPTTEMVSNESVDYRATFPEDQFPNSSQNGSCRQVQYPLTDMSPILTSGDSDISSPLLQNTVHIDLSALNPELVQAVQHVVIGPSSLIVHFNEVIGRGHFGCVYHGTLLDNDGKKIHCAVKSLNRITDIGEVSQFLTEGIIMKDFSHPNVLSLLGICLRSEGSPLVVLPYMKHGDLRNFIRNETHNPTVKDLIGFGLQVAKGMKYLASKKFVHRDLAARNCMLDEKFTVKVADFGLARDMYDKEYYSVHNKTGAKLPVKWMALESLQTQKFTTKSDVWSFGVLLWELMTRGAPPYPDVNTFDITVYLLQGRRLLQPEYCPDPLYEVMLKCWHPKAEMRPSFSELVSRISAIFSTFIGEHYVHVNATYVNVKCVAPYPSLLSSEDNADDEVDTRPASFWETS
How it was run: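 PC-3 cells, serum-starved 3 h, were treated with compounds (8-point dose curve, 0.3% DMSO final) for 1 h, then stimulated with 100 ng/mL recombinant human HGF for 10 min. Lysate phospho-Met (panTyr) was quantified by sandwich ELISA; IC50 from 4-parameter logistic fit.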

[3] = target: Mer (phospho-Mer, MERTK-transfected 293A cells) (Homo sapiens (Human), UniProt Q12866); assay: Mer autophosphorylation ELISA in transient transfected 293A cells (Example H); type: cell-based; conditions: cellular activity; Mer autophosphorylation ELISA in transient transfected 293A cells
Chain of Mer (phospho-Mer, MERTK-transfected 293A cells) (Q12866 21-999): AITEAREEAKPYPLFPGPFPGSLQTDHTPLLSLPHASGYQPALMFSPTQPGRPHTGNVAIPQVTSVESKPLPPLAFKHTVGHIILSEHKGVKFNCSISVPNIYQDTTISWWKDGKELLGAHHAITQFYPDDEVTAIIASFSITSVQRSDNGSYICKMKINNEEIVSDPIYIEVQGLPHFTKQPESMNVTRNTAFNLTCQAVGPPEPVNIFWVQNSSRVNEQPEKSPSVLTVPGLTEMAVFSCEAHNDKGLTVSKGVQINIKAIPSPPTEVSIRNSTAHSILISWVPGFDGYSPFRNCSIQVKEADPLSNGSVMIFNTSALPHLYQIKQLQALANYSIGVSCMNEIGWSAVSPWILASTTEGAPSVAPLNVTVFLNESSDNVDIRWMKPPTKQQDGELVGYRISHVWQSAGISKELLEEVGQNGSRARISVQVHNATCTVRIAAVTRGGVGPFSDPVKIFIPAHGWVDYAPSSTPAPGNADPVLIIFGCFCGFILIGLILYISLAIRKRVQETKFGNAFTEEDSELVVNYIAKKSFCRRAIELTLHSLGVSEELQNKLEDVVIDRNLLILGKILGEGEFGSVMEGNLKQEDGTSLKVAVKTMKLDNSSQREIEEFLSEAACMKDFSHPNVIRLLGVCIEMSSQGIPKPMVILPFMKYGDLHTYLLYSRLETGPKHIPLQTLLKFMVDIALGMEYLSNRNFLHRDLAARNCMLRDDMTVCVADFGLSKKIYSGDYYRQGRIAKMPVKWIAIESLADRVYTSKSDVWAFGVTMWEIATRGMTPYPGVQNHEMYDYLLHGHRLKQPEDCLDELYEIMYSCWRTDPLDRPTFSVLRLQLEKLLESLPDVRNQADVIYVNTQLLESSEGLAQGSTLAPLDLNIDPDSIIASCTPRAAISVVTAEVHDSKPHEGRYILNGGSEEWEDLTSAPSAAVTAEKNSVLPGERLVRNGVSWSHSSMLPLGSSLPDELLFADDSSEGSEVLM
How it was run: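 MERTK-transfected 293A; 8-pt dose, 1 h, serum-free, 0.3% DMSO. Cold lysis with orthovanadate and protease/phosphatase inhibitors. Phospho-Mer by DuoSet IC ELISA vs phospho-Mer standard. IC50: 4-PL fit; DMSO = 100%, reference inhibitor = 0%.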

Chain of Human KDR (residues 790-1356) (P35968 790-1356): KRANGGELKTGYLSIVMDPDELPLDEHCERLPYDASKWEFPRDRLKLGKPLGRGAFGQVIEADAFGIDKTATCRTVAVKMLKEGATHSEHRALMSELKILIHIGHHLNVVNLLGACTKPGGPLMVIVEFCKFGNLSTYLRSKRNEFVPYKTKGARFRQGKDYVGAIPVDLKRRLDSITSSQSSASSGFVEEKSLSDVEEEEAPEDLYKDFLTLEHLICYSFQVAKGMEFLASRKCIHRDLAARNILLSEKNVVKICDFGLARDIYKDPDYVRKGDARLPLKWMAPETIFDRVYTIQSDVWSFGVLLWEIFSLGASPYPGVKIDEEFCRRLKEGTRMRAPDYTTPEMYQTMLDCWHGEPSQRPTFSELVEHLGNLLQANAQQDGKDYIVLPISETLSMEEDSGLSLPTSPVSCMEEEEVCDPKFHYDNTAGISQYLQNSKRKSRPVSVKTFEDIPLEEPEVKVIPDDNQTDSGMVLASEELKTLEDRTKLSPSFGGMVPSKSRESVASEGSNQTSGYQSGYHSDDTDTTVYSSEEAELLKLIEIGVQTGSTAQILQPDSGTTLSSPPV

Compound	IC50 [1] [µM]	IC50 [2] [µM]	IC50 [3] [µM]
COc1ccc2nccc(Oc3ccc(NC(=O)c4n[nH]c(C)c(-c5ccc(F)cc5C)c4=O)cc3F)c2n1 [Compound 230, N-[3-Fluoro-4-[(6-methoxy-1,5-naphthyridin-4-yl)oxy]phenyl]-5-(4-fluoro-2-methylphenyl)-6-methyl-4-oxo-1H-pyridazine-3-carboxamide]	> 0.3	0.1 to 0.3	< 0.1
COc1cnc2c(Oc3ccc(NC(=O)c4c(C)ncn(-c5ccc(F)cc5)c4=O)cc3F)ccnc2c1 [Compound 256, N-[3-Fluoro-4-[(7-methoxy-1,5-naphthyridin-4-yl)oxy]phenyl]-1-(4-fluorophenyl)-4-methyl-6-oxopyrimidine-5-carboxamide]	0.1 to 0.3	0.1 to 0.3	< 0.1
COCc1nc(C)c(-c2ccc(F)cc2C)c(O)c1C(=O)Nc1ccc(Oc2ccnc3cc(OC)cnc23)cc1 [Compound 194, 5-(4-Fluoro-2-methylphenyl)-4-hydroxy-2-(methoxymethyl)-N-[4-[(7-methoxy-1,5-naphthyridin-4-yl)oxy]phenyl]-6-methylpyridine-3-carboxamide]	0.1 to 0.3	< 0.1	< 0.1
CCc1nc(C)c(-c2ccc(F)cc2C)c(O)c1C(=O)Nc1ccc(Oc2ccnc3cc(OC)cnc23)c(F)c1 [Compound 204, 2-Ethyl-N-[3-fluoro-4-[(7-methoxy-1,5-naphthyridin-4-yl)oxy]phenyl]-5-(4-fluoro-2-methylphenyl)-4-hydroxy-6-methylpyridine-3-carboxamide]	0.1 to 0.3	< 0.1	< 0.1
COc1cnc2c(Oc3ccc(NC(=O)c4cnc(CO)c(-c5ccc(F)cc5)c4O)cc3F)ccnc2c1 [Compound 217, N-[3-Fluoro-4-[(7-methoxy-1,5-naphthyridin-4-yl)oxy]phenyl]-5-(4-fluorophenyl)-4-hydroxy-6-(hydroxymethyl)pyridine-3-carboxamide]	0.1 to 0.3	< 0.1	< 0.1
COc1cnc2c(Oc3ccc(NC(=O)c4nn(C)c(C)c(-c5ccc(F)cc5)c4=O)cc3F)ccnc2c1 [Compound 250, N-[3-Fluoro-4-[(7-methoxy-1,5-naphthyridin-4-yl)oxy]phenyl]-5-(4-fluorophenyl)-1,6-dimethyl-4-oxopyridazine-3-carboxamide]	> 0.3	< 0.1	< 0.1
CCc1nc(C)c(-c2ccc(F)cc2C)c(O)c1C(=O)Nc1ccc(Oc2ccnc3ccc(OC)nc23)c(F)c1 [Compound 206, 2-Ethyl-N-[3-fluoro-4-[(6-methoxy-1,5-naphthyridin-4-yl)oxy]phenyl]-5-(4-fluoro-2-methylphenyl)-4-hydroxy-6-methylpyridine-3-carboxamide]	> 0.3	< 0.1	< 0.1
COCc1nc(C)c(-c2ccc(F)cc2C)c(O)c1C(=O)Nc1ccc(Oc2ccnc3cc(OC)cnc23)c(F)c1 [Compound 193, N-[3-Fluoro-4-[(7-methoxy-1,5-naphthyridin-4-yl)oxy]phenyl]-5-(4-fluoro-2-methylphenyl)-4-hydroxy-2-(methoxymethyl)-6-methylpyridine-3-carboxamide]	0.1 to 0.3	< 0.1	< 0.1
COCCOc1nc2c(Oc3ccc(NC(=O)c4cn(C)c(CO)c(-c5ccc(F)cc5)c4=O)cc3F)ccnc2cc1OC [Compound 228, N-[3-Fluoro-4-[[7-methoxy-6-(2-methoxyethoxy)-1,5-naphthyridin-4-yl]oxy]phenyl]-5-(4-fluorophenyl)-6-(hydroxymethyl)-1-methyl-4-oxopyridine-3-carboxamide]	0.1 to 0.3	< 0.1	< 0.1
COc1cc2nccc(Oc3ccc(NC(=O)c4c(C)ncc(-c5ccc(F)cc5)c4O)cc3)c2nc1OC [Compound 235, N-[4-[(6,7-Dimethoxy-1,5-naphthyridin-4-yl)oxy]phenyl]-5-(4-fluorophenyl)-4-hydroxy-2-methylpyridine-3-carboxamide]	< 0.1	< 0.1	< 0.1
COc1ccc(-c2c(C)n(C(C)C)cc(C(=O)Nc3ccc(Oc4ccnc5cc(OC)c(OC)nc45)c(F)c3)c2=O)cc1 [Compound 31, N-[4-[(6,7-dimethoxy-1,5-naphthyridin-4-yl)oxy]-3-fluorophenyl]-5-(4-methoxyphenyl)-6-methyl-4-oxo-1-propan-2-ylpyridine-3-carboxamide hydrochloride]	< 0.1	0.1 to 0.3	< 0.1
COc1cnc2c(Oc3ccc(NC(=O)c4c(C)n(C)cc(-c5ccc(F)cc5)c4=O)cc3F)ccnc2c1 [Compound 239, N-[3-Fluoro-4-[(7-methoxy-1,5-naphthyridin-4-yl)oxy]phenyl]-5-(4-fluorophenyl)-1,2-dimethyl-4-oxopyridine-3-carboxamide]	> 0.3	0.1 to 0.3	< 0.1
COCCOc1nc2c(Oc3ccc(NC(=O)c4cn(C)c(C)c(-c5ccc(F)cc5C)c4=O)cc3F)ccnc2cc1OC [Compound 200, N-[3-Fluoro-4-[[7-methoxy-6-(2-methoxyethoxy)-1,5-naphthyridin-4-yl]oxy]phenyl]-5-(4-fluoro-2-methylphenyl)-1,6-dimethyl-4-oxopyridine-3-carboxamide]	> 0.3	< 0.1	< 0.1
COc1ccc2nccc(Oc3ccc(NC(=O)c4c(C)ncn(-c5ccc(F)cc5)c4=O)cc3F)c2n1 [Compound 234, N-[3-Fluoro-4-[(6-methoxy-1,5-naphthyridin-4-yl)oxy]phenyl]-1-(4-fluorophenyl)-4-methyl-6-oxopyrimidine-5-carboxamide]	> 0.3	< 0.1	< 0.1

Results, then the compound that gave them:

IC50 [1] [µM]	IC50 [2] [µM]	IC50 [3] [µM]	Compound
< 0.1	< 0.1	< 0.1	CCc1nc(C)c(-c2ccc(F)cc2)c(O)c1C(=O)Nc1ccc(Oc2ccnc3cc(OC)cnc23)cc1 [Compound 188, 2-Ethyl-5-(4-fluorophenyl)-4-hydroxy-N-[4-[(7-methoxy-1,5-naphthyridin-4-yl)oxy]phenyl]-6-methylpyridine-3-carboxamide]
< 0.1	< 0.1	< 0.1	COc1cnc2c(Oc3ccc(NC(=O)c4c(C)nc(C)c(-c5ccc(F)cc5C)c4O)cc3F)ccnc2c1 [Compound 178, N-[3-Fluoro-4-[(7-methoxy-1,5-naphthyridin-4-yl)oxy]phenyl]-5-(4-fluoro-2-methylphenyl)-4-hydroxy-2,6-dimethylpyridine-3-carboxamide]
< 0.1	< 0.1	< 0.1	COc1ccc2nccc(Oc3ccc(NC(=O)c4c(C)ncc(-c5ccc(F)cc5)c4O)cc3F)c2n1 [Compound 242, N-[3-Fluoro-4-[(6-methoxy-1,5-naphthyridin-4-yl)oxy]phenyl]-5-(4-fluorophenyl)-4-hydroxy-2-methylpyridine-3-carboxamide]
< 0.1	< 0.1	< 0.1	COc1cc2nccc(Oc3ccc(NC(=O)c4cn(C(C)C)c(C)c(-c5cccc(F)c5)c4=O)cc3F)c2nc1OC [Compound 30, N-[4-[(6,7-Dimethoxy-1,5-naphthyridin-4-yl)oxy]-3-fluorophenyl]-5-(3-fluorophenyl)-6-methyl-4-oxo-1-propan-2-ylpyridine-3-carboxamide hydrochloride]
< 0.1	< 0.1	< 0.1	CCc1nc(C)c(-c2ccc(F)cc2)c(O)c1C(=O)Nc1ccc(Oc2ccnc3cc(OC)c(OC)nc23)cc1 [Compound 197, N-[4-[(6,7-Dimethoxy-1,5-naphthyridin-4-yl)oxy]phenyl]-2-ethyl-5-(4-fluorophenyl)-4-hydroxy-6-methylpyridine-3-carboxamide]
< 0.1	< 0.1	< 0.1	COCCOc1nc2c(Oc3ccc(NC(=O)c4ccc(C)n(-c5ccc(F)cc5)c4=O)cc3F)ccnc2cc1OC [Compound 227, N-[3-Fluoro-4-[[7-methoxy-6-(2-methoxyethoxy)-1,5-naphthyridin-4-yl]oxy]phenyl]-1-(4-fluorophenyl)-6-methyl-2-oxopyridine-3-carboxamide]
< 0.1	< 0.1	< 0.1	COc1cc2nccc(Oc3ccc(NC(=O)c4cn(C)cc(-c5ccccc5)c4=O)cc3F)c2nc1OC [Compound 33, N-[4-[(6,7-Dimethoxy-1,5-naphthyridin-4-yl)oxy]-3-fluorophenyl]-1-methyl-4-oxo-5-phenylpyridine-3-carboxamide hydrochloride]
< 0.1	< 0.1	< 0.1	COc1cc2nccc(Oc3ccc(NC(=O)c4c(C)ncc(-c5ccc(F)cc5)c4O)cc3F)c2nc1OC [Compound 237, N-[4-[(6,7-Dimethoxy-1,5-naphthyridin-4-yl)oxy]-3-fluorophenyl]-5-(4-fluorophenyl)-4-hydroxy-2-methylpyridine-3-carboxamide]
< 0.1	0.1 to 0.3	< 0.1	COc1ccc2nccc(Oc3ccc(NC(=O)c4c(C)nc(C)n(-c5ccc(F)cc5)c4=O)cc3F)c2n1 [Compound 233, N-[3-Fluoro-4-[(6-methoxy-1,5-naphthyridin-4-yl)oxy]phenyl]-1-(4-fluorophenyl)-2,4-dimethyl-6-oxopyrimidine-5-carboxamide]
